Tests used:
[1] = system: collagen I, III, and IV; test: FSGS model: renal collagen accumulation (IHC); format: in vivo, BALB/c mice; settings: FSGS mice
Experimental: Experiments described herein were performed on 8-week-old female BALB/c mice. The FSGS mice were injected intravenously with a single dose of adriamycin (0.1 mg/10 g body weight). The mice were given Compound 1 six hours before adriamycin injection by gavage daily till sacrifice. BALB/c mice intraperitoneal injected with normal saline were used as normal controls, while ASLN mice given vehicle (corn oil) by gavage were used as disease controls. Mice were killed at day 7, 14, or 21 after disease induction, and spleen, renal cortical tissue, and blood samples collected and stored appropriately until analysis. All animal experiments were performed with the ethical approval of the Institutional Animal Care and Use Committee of The National Defense Medical Center, Taiwan and performed according to the ethical rules in the NIH Guide for the Care and Use of Laboratory Animals.
For IHC, formalin-fixed and paraffin-embedded renal sections were prepared and incubated with primary antibodies against mouse Desmin (Lab Vision, CA, USA), CD3 (pan-T cell; Serotec, N.C., USA), F4/80 (monocytes/macrophages; Serotec), IL-6 (R&D Systems, MN, USA), NF-κB p65 (Cell Signaling Technology, MA, USA), collagen I, III, and IV (Southern Biotech, AL, USA), or TGF-β1 (Santa Cruz Biotechnology, CA, USA), biotinylated second antibodies (Dako, Glostrup, Denmark), and avidin-biotin-peroxidase complex (Dako). Semi-quantitative evaluation of staining was performed.

[2] = based on a previous study and empirical use (Chang et al. 2008); cited from earlier work
[3] = system: apoptosis in the kidney; test: AcP-IgAN model: apoptosis in the kidney (TUNEL); format: in vivo, B cell-deficient mice
Experimental: (§1) B cell-deficient mice (B6.129S2-Igh-6tm1Cgn/J) were obtained from the Academia Sinica (Professor John T. Kung, Institute of Molecular Biology), and maintained at the animal center of the National Defense Medical Center, Taipei, Taiwan. AcP-IgAN was induced in the mice by daily injection of purified IgA anti-phosphorylcholine antibodies and pneumococcal C-polysaccharide (PnC) as described previously (Chao, et al., Kidney Int. 70:283-297; 2006). All animal experiments were performed with the approval of the Institutional Animal Care and Use Committee of The National Defense Medical Center, Taiwan, and were consistent with the NIH Guide for the Care and Use of Laboratory Animals.
For the detection of apoptosis, terminal deoxynucleotidyl transferase-mediated dUTP nick-end labeling (TUNEL) was employed. Formalin-fixed and paraffin-embedded tissue sections were stained with ApopTag plus peroxidase in situ apoptosis detection kit (Chemicon, CA) according to the manufacturer's instructions. For scoring, the cortical renal area (including glomerular and peri-glomerular areas) were examined and expressed as cells/glomerular cross-section.

[4] = system: glutathione peroxidase (GPx); test: AcP-IgAN model: renal GPx; format: in vivo, B cell-deficient mice; settings: AcP-IgAN mice
Experimental: as §1
Nuclear proteins were extracted using a nuclear extract kit (Active Motif, Japan). Phospho-NF-κB p65 and nuclear factor-erythroid-2-related factor 2 (NrF2) were measured in renal tissue nuclear protein extracts using Trans-AM ELISA assay kits (Active Motif), according to the manufacturer's instructions. Renal cytosolic protein extracts using RIPA buffer (Cell signaling). Cytosolic glutathione peroxidase (GPx) (Cayman, Mich.) and cytosolic heme oxygenase-1 (HO-1) (Enzo Life Sciences, NY) were measured using commercial ELISA kits according to the manufacturer's instructions. Both were expressed relative to the protein concentration in the lysate.

[5] = system: nitric oxide (NO); test: AcP-IgAN model: NO levels; format: in vivo, B cell-deficient mice; settings: AcP-IgAN mice
Excerpt: NO levels in serum were detected with NO Detection kit (iNtRON Biotechnology, Seongnam, Korea), based on diazotization (Griess method), according to the manufacturer's instructions.
as §1

[6] = system: TGF-β1; test: AcP-IgAN model: renal TGF-β1 mRNA and protein; format: in vivo, B cell-deficient mice; settings: AcP-IgAN mice
Experimental: as §1
For IHC, formalin fixed and paraffin embedded tissue sections or frozen sections were incubated with against IL-6 (R&D Systems, MN), MCP-1 (Santa Cruz, Calif.), F4/80 (monocytes/macrophages; Serotec, N.C.), collagen IV (Southern Biotech, AL), TGF-β1 (Santa Cruz), phopsho-NFκB p65 (Cell Signaling, MA), CD3 (pan-T cell; Serotec), CD4 (T helper cell; BioLegend, CA), CD8 (cytotoxic T cell), CD11b (macrophages/neutrophils), or CD11c (dendritic cells) (BD Biosciences, CA) antibodies. The FITC-conjugated, Alexa Fluor 488-conjugated (Invitrogen, CA) or horseradish peroxidase (HRP) conjugated secondary antibodies (DAKO, Denmark) were then applied to the sections. Hematoxylin or 4′,6-diamidino-2-phenylindole (DAKO) was used in the counter staining for nuclei.
Total cortical kidney RNA was extracted with TriZOL reagents (Invitrogen) from cortical tissue of the kidney. For first-strand cDNA synthesis, 1.5 μg of total RNA was used in a single-round reverse transcriptase reaction. The reaction mixture consisted of 0.9 μl of Oligo (dT) 12 to 18 primer, 1.0 mM deoxyribonucleotide triphosphate (dNTP), 1 μl first strand buffer, 0.4 mM dithiothreitol, 80 U of RNaseout recombinant ribonuclease inhibitor, and 300 U of superscript II RNase H (Invitrogen). Real-time PCR was performed on an ABI Prism 7700 Sequence Detection System (Applied Biosystems, CA). […]

[7] = day 14 to day 21, vs control FSGS mice
[8] = day 3, vs control AcP-IgAN mice
[9] = day 28, vs control AcP-IgAN mice

Q: For `COC1=C(OC)[C@H](O)[C@H](C/C=C(\C)CC/C=C(\C)CCC=C(C)C)[C@@H](C)C1=O` [Compound 1, Antroquinonol], which “renal expression of collagen I (IHC)” value [1, 7] is on record?
A: significant suppression

Q: What about the “renal expression of collagen IV (IHC)” value [1, 7] of the same compound?
A: significant suppression

Q: What about the “renal expression of collagen III (IHC)” value ([1]; day 21, vs control FSGS mice) of the same compound?
A: significant suppression

Q: And the effective range [2]?
A: 10-50 mg/kg body weight

Q: And the “apoptosis in the kidney (TUNEL), increase” value ([3]; AcP-IgAN mice, day 28, vs control AcP-IgAN mice)?
A: greatly inhibited

Q: What about the “apoptosis in the kidney (TUNEL)” value ([3]; all the mice examined, day 3) of the same compound?
A: inconspicuous apoptosis

Q: What about the “GPx expression levels in renal tissues” value [4, 8] of the same compound?
A: no difference

Q: What about the “GPx expression levels in renal tissues” value [4, 9] of the same compound?
A: significantly higher

Q: And the “urine NO levels” value ([5]; both day 3 and day 28, vs control AcP-IgAN mice)?
A: significantly decreased

Q: And the “serum levels of NO” value [5, 8]?
A: no significant difference

Q: And the “serum levels of NO” value [5, 9]?
A: substantially reduced

Q: What about the “renal mRNA levels of TGF-β1” value ([6]; day 3) of the same compound?
A: basal mRNA levels

Q: What about the “TGF-beta protein levels in kidney (IHC)” value [6, 9] of the same compound?
A: substantially inhibited

Q: And the “renal mRNA expression of TGF-β1” value [6, 9]?
A: greatly inhibited

Source: patent US10406120B2, “Methods and compositions for treating kidney disorders” (Golden Biotechnology Corporation, priority 2013, dated 2019)
